We go through six compounds from patent publication US8853228B2, “Heterocyclic analogs of propargyl-linked inhibitors of dihydrofolate reductase” (University of Connecticut, priority 2011, dated 2014).

In brackets after ≈: the same amount, converted by molar mass. Like-named read-outs stand apart in the source and are kept apart here. A value given as a limit tells only on which side of the number the result lay.

Usually IC50 stands for the point on the concentration scale where inhibition reaches its midpoint. By Solubility is commonly meant how much of the substance goes into solution per volume. In general, MIC refers to the lowest concentration that inhibits growth of the organism.

One series has as its system C. glabrata. The experiment in a line: Antifungal assay (MIC, Alamar Blue). The series is classed as cell-based, Candida glabrata. The settings on record: for MIC (Cg) / MIC: C. glabrata; for MIC: Nakaseomyces glabratus.
In a further series the target is hDHFR (Homo sapiens (Human), UniProt P00374). The experiment in a line: hDHFR enzyme inhibition assay. The series is classed as biochemical.
Sequence of hDHFR (P00374 whole entry): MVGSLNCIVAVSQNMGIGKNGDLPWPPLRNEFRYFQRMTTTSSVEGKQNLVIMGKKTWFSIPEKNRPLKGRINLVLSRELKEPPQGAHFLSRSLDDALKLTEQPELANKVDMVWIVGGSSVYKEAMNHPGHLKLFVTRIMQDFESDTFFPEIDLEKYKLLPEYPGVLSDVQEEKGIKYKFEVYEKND
Another series is described as follows: Measured solubility. Type of series: physicochemical. The settings on record: in 200 mcg/mL HPMC and 0.2% DMSO.
A further series concerns the target CgDHFR (Candida glabrata (strain ATCC 2001 / BCRC 20586 / JCM 3761 / NBRC 0622 / NRRL Y-65 / CBS 138) (Yeast) (Nakaseomyces glabratus), UniProt Q6FPH0). The series can be described thus: biochemical. The following applies: for Selectivity: Table 7, hDHFR vs CgDHFR.
The next series concerns the target ChDHFR-TS (Cryptosporidium hominis, UniProt Q27552). The experiment in a line: ChDHFR enzyme inhibition assay. Type of series: biochemical. As for the experimental part: (§1) Enzyme and inhibitor were allowed to incubate for 5 min before adding dihydrofolate to initiate the reaction. Enzyme assays were performed at least four times. IC50 values and their standard deviations were calculated in the presence of varying concentrations of inhibitor near the IC50 concentration.
Compounds were evaluated in spectrophotometric enzyme assays using ChDHFR-TS and hDHFR. Inhibition constants (IC50) were measured (see Table 4). […] The compound abbreviations in Table 4 refer to the following compounds: […]

A further series concerns MCF-10 cells. The series can be described thus: Mammalian cell toxicity, MCF-10. The following applies: cytotoxicity. Type of series: cell-based, human.
The subject of a further series is Streptococcus pyogenes. The series can be described thus: Antibacterial MIC, broth microdilution with Alamar Blue. Type of series: cell-based. For orientation: Broth dilution looks for growth in wells or tubes with falling amounts of substance.
Another series deals with S. pyogenes DHFR (Streptococcus pyogenes, UniProt Q9A091). The experiment in a line: S. pyogenes DHFR enzyme inhibition assay. Type of series: biochemical. As for the experimental part: (§2) Enzyme inhibition assays were performed by monitoring the rate of NADPH oxidation by the DHFR enzyme at an absorbance of 340 nm. Assays were performed in the presence of saturating concentrations of NADPH and initiated with dihydrofolate. All assays were completed at 25° C. in a buffer containing 20 mM TES pH 7.0, 50 mM KCl, 10 mM 2-mercaptoethanol, 0.5 mM EDTA and 1 mg/mL BSA. Inhibition was measured at least three times with inhibitor concentrations near the IC50 value and the average IC50 value is reported with a standard deviation.
Sequence of S. pyogenes DHFR (Q9A091 1-165): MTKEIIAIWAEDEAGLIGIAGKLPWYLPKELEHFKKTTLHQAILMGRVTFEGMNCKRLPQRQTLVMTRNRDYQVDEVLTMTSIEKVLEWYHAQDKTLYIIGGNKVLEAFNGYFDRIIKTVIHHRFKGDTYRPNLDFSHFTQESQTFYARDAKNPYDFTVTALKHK

The next series has as its system S. aureus 13709 (MRSA). The experiment in a line: Antibacterial MIC, broth microdilution with Alamar Blue. The series is classed as cell-based, Staphylococcus aureus.
The next series relates to HepG2 cells. The experiment in a line: Mammalian cell toxicity, HepG2. The series is classed as cell-based. The settings on record: cytotoxicity, Table 6. On the procedure:
Adherent cell lines were maintained in Eagle's Minimal Essential Media (Sigma-Aldrich, St. Louis, Mo., USA) with 2 mM glutamine and Earle's Balanced Salt Solution (HyClone, Logan, Utah, USA) adjusted to contain 1.5 g/L sodium bicarbonate, 0.1 mM non-essential amino acids, 1 mM sodium pyruvate and 10% fetal calf serum. Fetal calf serum used in these assays was lot matched throughout. […] Toxicity assays were conducted between passages 10-20. Target compound toxicity was measured by incubating the test compound with the cells for 4 h, washing the cells and finally treating the cells with Alamar Blue. After 12-24 h, the fluorescence of the reduced dye was measured. Fluorescence intensity as a function of test compound concentration was fit to the Fermi equation, using non-linear least squares regression analysis, to estimate IC50 values.

The target in another series is S. aureus DHFR (Staphylococcus aureus, UniProt P0A017). Type of series: biochemical. As for the experimental part:
as §2

In the next series the test system is mammalian cell lines. The following applies: result in words.
The target in a further series is TgDHFR (Toxoplasma gondii, UniProt Q07422, DEL43-70). The experiment in a line: TgDHFR enzyme inhibition assay. The series is classed as biochemical. On the procedure:
These residues were removed, leaving a five residue loop region characteristic of several other species of DHFR.
as §1

Where [1] appears, read: Table 7, read-out: IC50 (hDHFR).
[2] abbreviates: Table 7, read-out: IC50 (CgDHFR).
[3] abbreviates: Table 4, read-out: IC50 (ChDHFR).
Setting [4] is: average of at least three measurements.

Sequence of ChDHFR-TS (Q27552 1-521): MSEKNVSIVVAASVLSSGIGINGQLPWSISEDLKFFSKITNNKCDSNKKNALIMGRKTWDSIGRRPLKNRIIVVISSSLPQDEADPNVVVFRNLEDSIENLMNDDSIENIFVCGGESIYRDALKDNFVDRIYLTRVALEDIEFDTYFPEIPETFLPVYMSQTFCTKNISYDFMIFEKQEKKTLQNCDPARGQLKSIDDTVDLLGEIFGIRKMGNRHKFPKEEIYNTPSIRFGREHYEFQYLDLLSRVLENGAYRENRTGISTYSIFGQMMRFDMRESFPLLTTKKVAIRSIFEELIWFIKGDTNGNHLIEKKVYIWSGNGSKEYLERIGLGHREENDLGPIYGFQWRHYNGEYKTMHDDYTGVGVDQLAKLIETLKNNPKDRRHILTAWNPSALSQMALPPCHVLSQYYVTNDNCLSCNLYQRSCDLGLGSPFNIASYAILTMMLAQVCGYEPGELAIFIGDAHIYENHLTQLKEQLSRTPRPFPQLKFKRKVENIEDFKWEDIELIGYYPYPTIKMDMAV
Sequence of CgDHFR (Q6FPH0 1-217): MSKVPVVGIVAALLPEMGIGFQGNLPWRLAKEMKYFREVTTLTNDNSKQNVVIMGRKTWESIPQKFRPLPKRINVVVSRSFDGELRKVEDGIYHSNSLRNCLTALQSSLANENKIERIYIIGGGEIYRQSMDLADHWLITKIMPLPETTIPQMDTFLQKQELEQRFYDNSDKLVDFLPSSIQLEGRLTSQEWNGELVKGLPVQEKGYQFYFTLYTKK
Sequence of TgDHFR (Q07422 71-250, added parts left off, stated change not applied): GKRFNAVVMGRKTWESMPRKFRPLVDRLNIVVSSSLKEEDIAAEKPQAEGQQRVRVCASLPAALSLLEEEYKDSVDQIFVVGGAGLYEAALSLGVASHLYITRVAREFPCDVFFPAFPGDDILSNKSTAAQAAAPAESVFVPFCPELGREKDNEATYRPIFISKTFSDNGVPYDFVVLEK

In the case of `COc1cc(C(C)C#Cc2c(C)nc(N)nc2N)cc(N2CCNCC2)c1` (stereo not shown) [Compound 159], the “MIC (Cg)” value with C. glabrata (YM media) was “Inact”. Further, the figures for the IC50 on hDHFR (setting [1]) and on CgDHFR (setting [2]) were 270 ± 46 nM and 143 ± 10 nM, respectively. Moreover, the Solubility in the series “Measured solubility” was 60 µg/mL (≈ 164 µM). Further, the Selectivity on CgDHFR was 1.9 ± 0.4.
`CCc1nc(N)nc(N)c1C#CC(C)c1cc(OC)cc(N2CCOCC2)c1` (stereo not shown) [Compound 153]: in the series on C. glabrata (YM media), the “MIC (Cg)” value is 12 µg/mL (≈ 31.5 µM). In addition, the IC50 amounted to 250 ± 4 nM at hDHFR (setting [1]) and 22 ± 2 nM at CgDHFR (setting [2]). In addition, the Solubility in the series “Measured solubility” amounted to 80 µg/mL (≈ 210 µM). This compound also gave a Selectivity on CgDHFR of 11 ± 1.
On to `COc1cc(-c2ccccc2)cc(C(C)C#Cc2c(C)nc(N)nc2N)c1` (racemic) [Compound 139, 5-[3-(5-methoxy-biphenyl-3-yl)but-1-yn-1-yl]-6-methylpyrimidine-2,4-diamine], for which the MIC with C. glabrata (YM media, read-out: MIC (Cg)) stood at 11 µg/mL (≈ 30.7 µM). In addition, the IC50 at ChDHFR-TS (setting [3]) is 1.8 nM. The Solubility in “Measured solubility” (aqueous with cosolvent or surfactant or cyclodextrin, kinetic from dmso stock, read-out: Solubility) is 20 µg/mL (≈ 55.8 µM).
On to `COc1cc(C(C)C#Cc2c(C)nc(N)nc2N)cc(N2CCOCC2)c1` (stereo not shown) [Compound 152], for which, in the series with C. glabrata (YM media), the “MIC (Cg)” value was determined as 12 µg/mL (≈ 32.7 µM). In addition, the “Selectivity Index” value in the series on C. glabrata (IC50 (MCF-10)/MIC (C. glabrata)) amounted to 330. Also, the “MIC C. glabrata” value against C. glabrata (IsoSensitest media supplemented with 2% glucose (thymidine-depleted)) is 1.4 µg/mL (≈ 3.81 µM). Further, the IC50 in the series with MCF-10 cells (Table 6) came out at 462000 nM; in the series with MCF-10 cells (Table 8), 462000 nM; on hDHFR (Table 5, average of at least three measurements, read-out: IC50 human) it was 400 ± 40 nM; on hDHFR (setting [1]), 400 ± 40 nM; on S. pyogenes DHFR (setting [4]) it was 26 ± 4 nM; at CgDHFR (setting [2]), 20 ± 3 nM. Also, the IC50 in the series on HepG2 cells was 494000 nM; against S. aureus DHFR (setting [4]), 29 ± 2 nM. For the same compound, the “Selectivity S. pyogenes” value in the series with Streptococcus pyogenes (IC50 (MCF10)/MIC (pathogen)) was 19,250. The “MIC S. pyogenes” value against Streptococcus pyogenes (Table 6) was determined as 0.024 µg/mL (≈ 0.0653 µM). In addition, the “Selectivity (h/Sp)” value at S. pyogenes DHFR (IC50 (human)/IC50 (pathogen)) is given as 15. Also, in “Measured solubility”, the Solubility turned out to be 80 µg/mL (≈ 218 µM). The Selectivity on CgDHFR turned out to be 20 ± 4. The “Selectivity MRSA” value in the series with S. aureus 13709 (MRSA) (IC50 (MCF10)/MIC (pathogen)) was determined as 159. In addition, the “MIC MRSA” value in the series with S. aureus 13709 (MRSA) (Table 6) was 2.9 µg/mL (≈ 7.89 µM). The “Selectivity (h/Sa)” value at S. aureus DHFR (IC50 (human)/IC50 (pathogen)) is given as 14.
For the compound `COc1cc(-c2c(C(C)C)cccc2C(C)C)ccc1C(C)C#Cc1c(C)nc(N)nc1N` (stereo not shown) [Compound F26I, 5-[3-(3-methoxy-2′6′-diisopropylbiphenyl-4-yl)but-1-yn-1-yl]-6-methylpyrimidine-2,4-diamine], the “Selectivity Ratio (IC50 ChDHFR/IC50 hDHFR)” value on ChDHFR-TS (Table 4) was determined as 262. Further, the IC50 at ChDHFR-TS (setting [3]) amounted to 16 nM; on hDHFR (Table 4, read-out: IC50 (hDHFR)), 4200 ± 0.1 nM. Further, the mammalian cell toxicity result in the series with mammalian cell lines is given as “display mammalian cell toxcity”.
For `COc1cc(CC#Cc2c(C)nc(N)nc2N)cc(OC)c1OC` [Compound 5, 6-methyl-5-[3-(3,4,5-trimethoxyphenyl)prop-1-yn-1-yl]pyrimidine-2,4-diamine], the MIC in the series on C. glabrata (Inact: not active at 2 mM (~600 μg/mL), read-out: Antifungal activity MIC) was 20 µg/mL (≈ 60.9 µM). Further, the “antifungal properties against C. glabrata” value in the series on C. glabrata (result in words) is “exhibited antifungal properties”. The concentration for half-maximal inhibition (IC50) was less than 100000 nM against ChDHFR-TS (IC50 against ChDHFR); less than 100000 nM on TgDHFR; 400 nM on hDHFR (Table 3, read-out: hDHFR IC50); no more than 25 nM against CgDHFR (IC50 against CgDHFR); 17 nM on CgDHFR (Table 3, read-out: CgDHFR IC50).
